Patent publication US20230374054A1, “METHOD FOR PURIFYING SUCRALOSE” (ANHUI JINHE INDUSTRIAL CO., LTD., priority 2020, published 2023)

Columns and labels:
[1] = Accelerated stability test (ICH guideline), purity of the stored sucralose product by HPLC; assay type: physicochemical; conditions: 40° C. ± 2° C., 60% RH ± 5% RH
Description: A test and analysis method for the purity of sucralose involved in the present disclosure could refer to the Chinese National Standard “GB25531-2010 for Food Additive Sucralose”.
Analysis and determination conditions of the purity of sucralose: High-performance liquid chromatograph from Shimadzu, Japan: RID-10A differential refractive index detector, LC-10ADVP high-pressure pump, and CTO-10ASVP incubator; chromatographic column: Agilent XDB C18 column (250 mm×4.6 mm, 5 μm); mobile phase: methanol-0.125% dipotassium phosphate (DKP) aqueous solution (4:6); column temperature: 30° C.; and flow rate: 1.0 mL/min. Methanol (chromatographically pure), DKP (analytically pure), UPW, and sucralose (purity: 99.9%) are required, and a content is determined by an external standard method.
The products obtained according to Examples 1 to 6 and Comparative Examples 1 to 3 each were subjected to an accelerated stability test.

[2] = Bulk density determination (50 mL measuring cylinder, free-fall impact until compacted); assay type: physicochemical; conditions: sample compacted in 50 mL measuring cylinder, free-fall impact at 5 cm height
Description: Determination method of bulk density: A sample of an example is added to a 50 mL measuring cylinder and continuously subjected to free-fall impact at a height of 5 cm until the sample is compacted, and then a mass of the sample is measured to obtain bulk density data.

Row | Compound | Purity after storage, One month [1] | Purity after storage, Six months [1] | Purity after storage, Three months [1] | Purity after storage, Twelve months [1] | Purity after storage, Twenty-four months [1] | Bulk density [2]
1 | OC[C@H]1O[C@H](O[C@]2(CCl)O[C@H](CCl)[C@@H](O)[C@@H]2O)[C@H](O)[C@@H](O)[C@H]1Cl [Comparative Example 1, sucralose] | 99.61% | 99.51% | 99.57% | 99.38% | 99.12% | 0.981 g/mL
2 | OC[C@H]1O[C@H](O[C@]2(CCl)O[C@H](CCl)[C@@H](O)[C@@H]2O)[C@H](O)[C@@H](O)[C@H]1Cl [Comparative Example 2, sucralose] | 99.73% | 99.63% | 99.69% | 99.47% | 99.20% | 1.021 g/mL
3 | OC[C@H]1O[C@H](O[C@]2(CCl)O[C@H](CCl)[C@@H](O)[C@@H]2O)[C@H](O)[C@@H](O)[C@H]1Cl [Comparative Example 3, sucralose] | 99.63% | 99.50% | 99.58% | 99.35% | 99.04% | 0.979 g/mL
4 | OC[C@H]1O[C@H](O[C@]2(CCl)O[C@H](CCl)[C@@H](O)[C@@H]2O)[C@H](O)[C@@H](O)[C@H]1Cl [Example 1, sucralose] | 99.95% | 99.87% | 99.92% | 99.79% | 99.56% | 1.109 g/mL
5 | OC[C@H]1O[C@H](O[C@]2(CCl)O[C@H](CCl)[C@@H](O)[C@@H]2O)[C@H](O)[C@@H](O)[C@H]1Cl [Example 2, sucralose] | 99.65% | 99.50% | 99.59% | 99.33% | 98.98% | 1.056 g/mL
6 | OC[C@H]1O[C@H](O[C@]2(CCl)O[C@H](CCl)[C@@H](O)[C@@H]2O)[C@H](O)[C@@H](O)[C@H]1Cl [Example 3, sucralose] | 99.63% | 99.47% | 99.56% | 99.26% | 98.87% | 1.067 g/mL
7 | OC[C@H]1O[C@H](O[C@]2(CCl)O[C@H](CCl)[C@@H](O)[C@@H]2O)[C@H](O)[C@@H](O)[C@H]1Cl [Example 4, sucralose] | 99.94% | 99.85% | 99.91% | 99.73% | 99.69% | 1.110 g/mL
8 | OC[C@H]1O[C@H](O[C@]2(CCl)O[C@H](CCl)[C@@H](O)[C@@H]2O)[C@H](O)[C@@H](O)[C@H]1Cl [Example 5, sucralose] | 99.85% | 99.73% | 99.79% | 99.60% | 99.35% | 1.103 g/mL
9 | OC[C@H]1O[C@H](O[C@]2(CCl)O[C@H](CCl)[C@@H](O)[C@@H]2O)[C@H](O)[C@@H](O)[C@H]1Cl [Example 6, sucralose] | 99.74% | 99.63% | 99.70% | 99.51% | 99.23% | 
10 | OC[C@H]1O[C@H](O[C@]2(CCl)O[C@H](CCl)[C@@H](O)[C@@H]2O)[C@H](O)[C@@H](O)[C@H]1Cl [Raw material, sucralose] | 99.36% | 99.05% | 99.12% | 98.78% | 98.42% | 0.978 g/mL
